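Dose response: 5 concentrations. Exposure: 48 h. Format: 96-well plates. Endpoint: linear interpolation; highest concentration if not reached. GI50 is the concentration that inhibits growth by half.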 Calls of active or inactive are those of the source. Rule as the data show it: active = GI50 up to about 1.1 µM and inactive = higher.
Tests used:
Assay in all cases: growth of human tumour cells (NCI), 48 h
MDA-N = test system: MDA-N
CCRF-CEM = test system: CCRF-CEM
OVCAR-8 = test system: OVCAR-8
T47D = test system: T47D
M14 = test system: M14
HOP-62 = test system: HOP-62
UACC-62 = test system: UACC-62
HOP-92 = test system: HOP-92
Malme-3M = test system: Malme-3M
SF-539 = test system: SF-539
786-0 = test system: 786-0
SN12C = test system: SN12C
A498 = test system: A498
PC-3 = test system: PC-3
K562 = test system: K562
COLO 205 = test system: COLO 205
MDA-MB-435 = test system: MDA-MB-435
SNB-19 = test system: SNB-19
SF-268 = test system: SF-268
MDA-MB-231 = test system: MDA-MB-231
SW-620 = test system: SW-620
MOLT-4 = test system: MOLT-4
NCI-H522 = test system: NCI-H522
MCF7 = test system: MCF7
NCI-H460 = test system: NCI-H460
RXF 393 = test system: RXF 393
KM12 = test system: KM12
TK-10 = test system: TK-10
HCT-116 = test system: HCT-116
SK-MEL-2 = test system: SK-MEL-2
OVCAR-3 = test system: OVCAR-3
HCT-15 = test system: HCT-15
NCI-H23 = test system: NCI-H23
SF-295 = test system: SF-295
ACHN = test system: ACHN
A549 = test system: A549
RPMI-8226 = test system: RPMI-8226
SR = test system: SR
U-251 = test system: U-251
LOX IMVI = test system: LOX IMVI
CAKI-1 = test system: CAKI-1
NCI-H226 = test system: NCI-H226
EKVX = test system: EKVX
OVCAR-4 = test system: OVCAR-4
SK-OV-3 = test system: SK-OV-3
SK-MEL-28 = test system: SK-MEL-28
IGROV-1 = test system: IGROV-1
UO-31 = test system: UO-31
Hs-578T = test system: Hs-578T
UACC-257 = test system: UACC-257
HT-29 = test system: HT-29
BT-549 = test system: BT-549
DU-145 = test system: DU-145
SK-MEL-5 = test system: SK-MEL-5
NCI/ADR-RES = test system: NCI/ADR-RES
OVCAR-5 = test system: OVCAR-5
SNB-75 = test system: SNB-75

Measured: GI50

O=C1/C(=C/c2cccnc2)SC(=S)N1Cc1ccco1
3.72 µM: HCT-15
inactive: MDA-N 2.33 µM | CCRF-CEM 3.21 µM | OVCAR-8 4.7 µM | T47D 11.7 µM | M14 5.6 µM | HOP-62 5.77 µM | UACC-62 8.97 µM | HOP-92 5.32 µM | Malme-3M 6.73 µM | SF-539 2.33 µM | 786-0 3.29 µM | SN12C 4.47 µM | A498 24.7 µM | PC-3 3.87 µM | K562 14.6 µM | COLO 205 6.15 µM | MDA-MB-435 2.15 µM | SNB-19 32 µM | SF-268 5.94 µM | MDA-MB-231 7.08 µM | SW-620 3.84 µM | MOLT-4 3.08 µM | NCI-H522 1.43 µM | MCF7 3.28 µM | NCI-H460 6.37 µM | RXF 393 3.44 µM | KM12 3.13 µM | TK-10 2.34 µM | HCT-116 3.06 µM | SK-MEL-2 8.87 µM | OVCAR-3 3.31 µM | NCI-H23 4.72 µM | SF-295 35.7 µM | ACHN 10.7 µM | A549 31 µM | RPMI-8226 2.2 µM | SR 1.44 µM | U-251 4.37 µM | LOX IMVI 4.16 µM | CAKI-1 9.59 µM | NCI-H226 24.4 µM | EKVX 49.5 µM | OVCAR-4 8.81 µM | SK-OV-3 19.1 µM | SK-MEL-28 31 µM | IGROV-1 6.68 µM | UO-31 2.84 µM | Hs-578T 8.39 µM | UACC-257 4.92 µM | HT-29 4.01 µM | BT-549 27.2 µM | DU-145 2.19 µM | SK-MEL-5 13.4 µM | NCI/ADR-RES 20.1 µM | OVCAR-5 36.1 µM

CS(=O)(=O)N(CC(=O)O)Cc1ccccc1
> 100 µM: HCT-15
inactive: MDA-N > 100 µM | CCRF-CEM > 100 µM | OVCAR-8 > 100 µM | T47D > 100 µM | M14 > 100 µM | HOP-62 > 100 µM | UACC-62 > 100 µM | HOP-92 > 100 µM | Malme-3M > 100 µM | SF-539 > 100 µM | 786-0 > 100 µM | SN12C > 100 µM | A498 > 100 µM | PC-3 > 100 µM | K562 > 100 µM | SNB-75 > 100 µM | COLO 205 > 100 µM | MDA-MB-435 > 100 µM | SNB-19 > 100 µM | SF-268 > 100 µM | MDA-MB-231 > 100 µM | SW-620 > 100 µM | MOLT-4 > 100 µM | NCI-H522 > 100 µM | MCF7 > 100 µM | NCI-H460 > 100 µM | RXF 393 > 100 µM | KM12 > 100 µM | TK-10 > 100 µM | HCT-116 > 100 µM | SK-MEL-2 > 100 µM | OVCAR-3 > 100 µM | NCI-H23 > 100 µM | SF-295 > 100 µM | ACHN > 100 µM | A549 > 100 µM | RPMI-8226 > 100 µM | SR > 100 µM | U-251 > 100 µM | LOX IMVI > 100 µM | CAKI-1 > 100 µM | NCI-H226 > 100 µM | EKVX > 100 µM | OVCAR-4 > 100 µM | SK-OV-3 > 100 µM | SK-MEL-28 > 100 µM | IGROV-1 > 100 µM | Hs-578T > 100 µM | UACC-257 > 100 µM | HT-29 > 100 µM | BT-549 > 100 µM | DU-145 > 100 µM | SK-MEL-5 > 100 µM | NCI/ADR-RES > 100 µM | OVCAR-5 > 100 µM

Reference: ChEMBL document CHEMBL1201862, “PubChem BioAssay data set” (2004)
